Data on two compounds can be found in ChEMBL document CHEMBL4507267 (2021).

The target in test [1] is Cyclin-dependent kinase 11A (Homo sapiens) (UniProt Q9UQ88). The settings on record: Compound concentration 1000.0 nM.
Test [2] concerns the target Serine/threonine-protein kinase Nek10 (Homo sapiens) (UniProt Q6ZWH5). Conditions: Compound concentration 1000.0 nM; call rule not given here.
Test [3] concerns the target Mast/stem cell growth factor receptor Kit (Homo sapiens) (UniProt P10721). Conditions: Compound concentration 1000.0 nM.
Test [4] addresses Sodium-dependent noradrenaline transporter (Homo sapiens) (UniProt P23975). Conditions: Compound concentration 10.0 uM.
The test system of test [5] is Tyrosine-protein kinase ABL1 (Homo sapiens), P00519 [Y253F]. Conditions: Compound concentration 1000.0 nM.
Test [6] has as its target Tyrosine-protein kinase Lyn (Homo sapiens) (UniProt P07948). Conditions: Compound concentration 1000.0 nM.
The target in test [7] is T1, Histamine H1 receptor (Homo sapiens, UniProt P35367). Conditions: Compound concentration 10.0 uM.
Test [8] concerns the target Dual specificity protein kinase TTK (Homo sapiens) (UniProt P33981). Conditions: Compound concentration 1000.0 nM.
The target of test [9] is cAMP-dependent protein kinase catalytic subunit PRKX (Homo sapiens) (UniProt P51817). The settings on record: Compound concentration 1000.0 nM.
Test [10] has as its target Mitogen-activated protein kinase 11 (Homo sapiens) (UniProt Q15759). The settings on record: Compound concentration 1000.0 nM.
The target in test [11] is Solute carrier family 2, facilitated glucose transporter member 2 (Homo sapiens, UniProt P11168). In words: Cell-based assay with CellTiter-Glo readout for ATP production with SLC2A2.
Test [12] addresses Mitogen-activated protein kinase kinase kinase 19 (Homo sapiens) (UniProt Q56UN5). Conditions: Compound concentration 1000.0 nM.
Test [13] addresses D(1A) dopamine receptor (Homo sapiens) (UniProt P21728). The settings on record: Compound concentration 10.0 uM.
For test [14], the target named is Serine/threonine-protein kinase RIO3 (Homo sapiens) (UniProt O14730). Conditions: Compound concentration 1000.0 nM.
Test [15] has as its target Sigma intracellular receptor 2 (Homo sapiens) (UniProt Q5BJF2). The settings on record: Compound concentration 10.0 uM.
Test [16] has as its target Serine/threonine-protein kinase DCLK1 (Homo sapiens) (UniProt O15075). Conditions: Compound concentration 1000.0 nM.
For test [17], the target named is Casein kinase I isoform delta (Homo sapiens) (UniProt P48730). Conditions: Compound concentration 1000.0 nM.
Test [18] has as its target Ephrin type-B receptor 4 (Homo sapiens) (UniProt P54760). Conditions: Compound concentration 1000.0 nM.
Test [19] concerns the target Delta-type opioid receptor (Homo sapiens) (UniProt P41143). Conditions: Compound concentration 10.0 uM.
For another test, the target named is Histamine H2 receptor (Homo sapiens, UniProt P25021). In words: GPCRScan assay: inhibition of H2. More on the design: radioligand conc. used [nm] 0.02 – 0.05, parental cells Stable HEK.
Test [20] addresses T1, Histamine H1 receptor. The test can be described thus: GPCRScan assay: inhibition of H1. Set-up: radioligand conc. used [nm] 0.6 – 2.0, parental cells stable HEK.
For test [21], the target named is Solute carrier family 2, facilitated glucose transporter member 4 (Homo sapiens, UniProt P14672). In words: Cell-based assay with CellTiter-Glo readout for ATP production with SLC2A4. In general terms: In ATP-based viability assays light output follows the ATP content of the culture.
For the next test, the species on record is Rattus norvegicus. The settings on record: Compound concentration 10.0 uM.
In test [22] the target is 5-hydroxytryptamine receptor 7 (Homo sapiens) (UniProt P34969). The settings on record: Compound concentration 10.0 uM.

Ephrin type-B receptor 4 (Homo sapiens), sequence (P54760 whole entry): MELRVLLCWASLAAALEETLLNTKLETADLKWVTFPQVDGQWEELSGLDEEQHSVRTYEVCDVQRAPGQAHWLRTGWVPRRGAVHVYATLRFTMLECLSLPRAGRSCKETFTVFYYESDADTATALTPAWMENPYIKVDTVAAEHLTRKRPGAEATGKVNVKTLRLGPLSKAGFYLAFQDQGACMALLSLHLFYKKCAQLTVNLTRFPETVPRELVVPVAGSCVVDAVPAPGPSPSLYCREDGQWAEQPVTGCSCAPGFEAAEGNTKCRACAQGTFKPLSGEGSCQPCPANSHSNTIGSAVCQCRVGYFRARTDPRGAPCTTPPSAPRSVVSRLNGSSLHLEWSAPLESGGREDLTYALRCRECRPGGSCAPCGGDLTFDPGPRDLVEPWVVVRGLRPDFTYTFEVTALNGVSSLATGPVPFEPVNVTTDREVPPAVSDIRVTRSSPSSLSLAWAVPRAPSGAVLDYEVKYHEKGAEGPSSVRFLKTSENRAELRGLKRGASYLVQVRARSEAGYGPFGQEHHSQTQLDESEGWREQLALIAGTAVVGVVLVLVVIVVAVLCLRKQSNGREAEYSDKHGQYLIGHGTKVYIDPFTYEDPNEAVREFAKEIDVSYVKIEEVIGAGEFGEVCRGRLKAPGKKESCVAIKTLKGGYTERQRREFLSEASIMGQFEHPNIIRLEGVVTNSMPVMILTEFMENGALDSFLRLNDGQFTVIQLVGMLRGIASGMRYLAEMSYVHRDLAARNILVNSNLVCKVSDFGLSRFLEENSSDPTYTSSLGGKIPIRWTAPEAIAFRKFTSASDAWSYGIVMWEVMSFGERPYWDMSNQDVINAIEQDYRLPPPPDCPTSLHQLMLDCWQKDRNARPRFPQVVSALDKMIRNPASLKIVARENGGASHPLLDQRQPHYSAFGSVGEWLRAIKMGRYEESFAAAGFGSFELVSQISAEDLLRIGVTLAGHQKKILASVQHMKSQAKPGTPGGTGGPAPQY
Casein kinase I isoform delta (Homo sapiens), sequence (P48730 whole entry, looked up, canonical isoform): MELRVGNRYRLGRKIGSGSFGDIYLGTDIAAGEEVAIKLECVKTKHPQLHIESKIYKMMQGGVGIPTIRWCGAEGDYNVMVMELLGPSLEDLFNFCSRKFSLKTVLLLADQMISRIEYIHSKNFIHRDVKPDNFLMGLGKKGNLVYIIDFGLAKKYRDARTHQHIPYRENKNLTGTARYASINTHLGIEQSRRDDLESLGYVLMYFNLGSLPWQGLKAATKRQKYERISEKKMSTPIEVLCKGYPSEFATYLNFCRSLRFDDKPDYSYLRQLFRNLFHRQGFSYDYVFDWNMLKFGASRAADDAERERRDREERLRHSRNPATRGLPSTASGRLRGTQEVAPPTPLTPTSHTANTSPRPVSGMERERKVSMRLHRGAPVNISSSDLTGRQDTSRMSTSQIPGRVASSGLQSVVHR
Serine/threonine-protein kinase DCLK1 (Homo sapiens), sequence (O15075 whole entry, canonical isoform): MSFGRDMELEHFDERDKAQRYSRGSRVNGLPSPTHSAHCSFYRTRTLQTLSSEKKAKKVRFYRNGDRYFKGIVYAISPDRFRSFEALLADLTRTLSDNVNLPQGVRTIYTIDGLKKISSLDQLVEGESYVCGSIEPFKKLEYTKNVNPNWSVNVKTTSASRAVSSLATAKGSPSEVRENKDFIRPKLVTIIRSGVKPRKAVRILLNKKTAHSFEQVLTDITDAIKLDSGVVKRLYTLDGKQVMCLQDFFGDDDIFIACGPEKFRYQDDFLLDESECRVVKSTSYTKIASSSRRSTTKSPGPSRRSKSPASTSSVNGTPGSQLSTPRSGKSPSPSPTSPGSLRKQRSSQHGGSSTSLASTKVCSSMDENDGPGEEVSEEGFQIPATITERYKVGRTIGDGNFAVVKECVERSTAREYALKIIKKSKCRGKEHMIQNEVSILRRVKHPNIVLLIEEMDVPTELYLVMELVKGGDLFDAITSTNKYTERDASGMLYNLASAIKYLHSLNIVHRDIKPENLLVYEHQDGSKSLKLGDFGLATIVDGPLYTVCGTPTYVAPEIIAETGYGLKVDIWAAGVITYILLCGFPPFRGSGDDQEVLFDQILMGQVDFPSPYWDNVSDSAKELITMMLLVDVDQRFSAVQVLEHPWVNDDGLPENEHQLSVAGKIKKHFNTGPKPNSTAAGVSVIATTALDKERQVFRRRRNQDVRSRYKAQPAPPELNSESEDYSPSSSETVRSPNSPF
Serine/threonine-protein kinase RIO3 (Homo sapiens), sequence (O14730 whole entry): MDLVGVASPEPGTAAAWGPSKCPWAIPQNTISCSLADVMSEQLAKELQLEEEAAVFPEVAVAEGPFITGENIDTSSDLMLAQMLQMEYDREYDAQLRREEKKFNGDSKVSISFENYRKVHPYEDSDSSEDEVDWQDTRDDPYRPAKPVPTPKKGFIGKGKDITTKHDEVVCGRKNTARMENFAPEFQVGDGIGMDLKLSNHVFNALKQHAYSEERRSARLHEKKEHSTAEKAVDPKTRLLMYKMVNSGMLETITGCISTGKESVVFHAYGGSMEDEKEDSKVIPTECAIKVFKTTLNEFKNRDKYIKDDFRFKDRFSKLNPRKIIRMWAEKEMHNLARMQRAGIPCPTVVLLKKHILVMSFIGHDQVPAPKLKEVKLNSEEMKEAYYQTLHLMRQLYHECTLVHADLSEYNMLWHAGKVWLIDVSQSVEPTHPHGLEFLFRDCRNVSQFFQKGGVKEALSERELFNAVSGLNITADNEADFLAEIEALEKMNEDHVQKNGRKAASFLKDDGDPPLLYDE
Cyclin-dependent kinase 11A (Homo sapiens), sequence (Q9UQ88 whole entry): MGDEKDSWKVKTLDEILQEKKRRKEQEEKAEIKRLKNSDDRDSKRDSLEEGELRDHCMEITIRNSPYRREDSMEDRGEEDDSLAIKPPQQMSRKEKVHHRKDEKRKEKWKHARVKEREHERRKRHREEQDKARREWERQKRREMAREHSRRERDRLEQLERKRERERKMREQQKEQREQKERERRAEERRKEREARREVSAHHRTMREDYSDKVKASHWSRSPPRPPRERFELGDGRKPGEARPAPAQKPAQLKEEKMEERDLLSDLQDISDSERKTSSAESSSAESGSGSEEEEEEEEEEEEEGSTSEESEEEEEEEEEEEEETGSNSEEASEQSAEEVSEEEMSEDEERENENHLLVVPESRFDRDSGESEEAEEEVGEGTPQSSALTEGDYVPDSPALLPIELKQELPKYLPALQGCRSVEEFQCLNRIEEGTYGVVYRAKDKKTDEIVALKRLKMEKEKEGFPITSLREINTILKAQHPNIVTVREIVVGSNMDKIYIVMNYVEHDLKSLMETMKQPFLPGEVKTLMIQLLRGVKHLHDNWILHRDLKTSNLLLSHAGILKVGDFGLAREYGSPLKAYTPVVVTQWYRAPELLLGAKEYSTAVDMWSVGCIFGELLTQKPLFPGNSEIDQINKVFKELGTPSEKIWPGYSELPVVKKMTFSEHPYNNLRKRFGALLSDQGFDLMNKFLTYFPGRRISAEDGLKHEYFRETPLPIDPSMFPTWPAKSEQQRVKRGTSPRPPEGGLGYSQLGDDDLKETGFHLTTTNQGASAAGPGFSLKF
Mast/stem cell growth factor receptor Kit (Homo sapiens), sequence (P10721 whole entry): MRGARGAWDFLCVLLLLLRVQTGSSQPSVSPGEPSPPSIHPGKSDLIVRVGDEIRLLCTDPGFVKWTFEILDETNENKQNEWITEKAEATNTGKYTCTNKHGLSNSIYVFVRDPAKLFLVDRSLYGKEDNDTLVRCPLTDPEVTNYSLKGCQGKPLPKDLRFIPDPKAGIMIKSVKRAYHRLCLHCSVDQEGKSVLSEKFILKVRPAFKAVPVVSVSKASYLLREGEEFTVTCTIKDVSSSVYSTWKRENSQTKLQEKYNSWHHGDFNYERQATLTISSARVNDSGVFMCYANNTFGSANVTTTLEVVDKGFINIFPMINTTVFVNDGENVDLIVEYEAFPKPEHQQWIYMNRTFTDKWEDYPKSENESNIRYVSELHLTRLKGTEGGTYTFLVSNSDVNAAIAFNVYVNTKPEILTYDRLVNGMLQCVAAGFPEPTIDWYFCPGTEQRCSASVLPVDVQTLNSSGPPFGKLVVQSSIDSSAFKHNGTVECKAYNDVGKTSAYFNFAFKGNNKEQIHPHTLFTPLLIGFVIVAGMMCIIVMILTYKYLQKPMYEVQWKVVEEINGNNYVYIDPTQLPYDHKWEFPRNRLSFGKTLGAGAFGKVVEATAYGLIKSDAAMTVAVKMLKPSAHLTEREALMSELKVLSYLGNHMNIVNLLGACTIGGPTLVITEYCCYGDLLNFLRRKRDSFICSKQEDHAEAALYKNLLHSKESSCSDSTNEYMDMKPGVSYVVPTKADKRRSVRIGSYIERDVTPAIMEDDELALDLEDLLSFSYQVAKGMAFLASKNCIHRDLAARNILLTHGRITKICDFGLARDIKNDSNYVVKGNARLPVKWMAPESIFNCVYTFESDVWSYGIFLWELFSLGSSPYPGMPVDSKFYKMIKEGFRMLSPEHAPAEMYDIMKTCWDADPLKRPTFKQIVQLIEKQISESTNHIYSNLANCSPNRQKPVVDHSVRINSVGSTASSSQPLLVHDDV
Tyrosine-protein kinase Lyn (Homo sapiens), sequence (P07948 2-512 limits assumed): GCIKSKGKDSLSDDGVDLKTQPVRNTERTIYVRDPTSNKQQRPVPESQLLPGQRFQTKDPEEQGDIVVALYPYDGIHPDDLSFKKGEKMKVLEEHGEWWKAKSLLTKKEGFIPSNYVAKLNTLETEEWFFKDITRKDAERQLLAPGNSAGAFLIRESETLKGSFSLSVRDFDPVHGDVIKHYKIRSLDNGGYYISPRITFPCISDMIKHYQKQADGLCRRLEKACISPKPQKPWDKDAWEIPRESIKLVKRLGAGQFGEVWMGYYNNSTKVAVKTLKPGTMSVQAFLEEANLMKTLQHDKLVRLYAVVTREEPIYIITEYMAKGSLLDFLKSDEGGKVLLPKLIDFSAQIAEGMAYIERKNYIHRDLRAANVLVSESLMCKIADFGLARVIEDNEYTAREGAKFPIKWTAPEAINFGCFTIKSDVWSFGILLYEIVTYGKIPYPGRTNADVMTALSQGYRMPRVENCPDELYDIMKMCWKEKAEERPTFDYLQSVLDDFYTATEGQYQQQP

For orientation: inhibition means the change of the read-out against control, counted positive when it falls. As a reminder, the IC50 is the point on the concentration scale where inhibition reaches its midpoint. Read a high IC50 as lower potency. As for `Cc1c(NC(=O)c2cc(C(N)=O)nc3cc(F)ccc23)c(C(F)(F)F)nn1Cc1ccc(C(C)(C)C)cc1` [BAY-588], the residual activity was 94% in test [1]; 100% in test [2]; 100% in [3]; 100% in test [5]; 99% in [6]; 79% in test [8]. Moreover, the residual activity is 94% in test [9]; 91% in [10]; 85% in test [12]; 97% in test [14]; 91% in test [16]; 81% in [17]. The residual activity in [18] is 100%. Also, the inhibition in [4] is -4.06%; at Histamine H1 receptor [7] it was 46.1%; in test [13], 3.41%; in [15], 40.7%; in [19], -9.45%. Besides, in test [11], the IC50 is on record as > 10 µM (not active).

As a reminder, the Ki is a measure of affinity in units of concentration, obtained from inhibition or displacement. For `Cc1c(NC(=O)c2cc(C(N)=O)nc3cc(F)ccc23)c(C(F)(F)F)nn1Cc1ccc(C#N)cc1` [BAY-876], the residual activity was 100% in [1]; 83% in test [2]; 72% in [3]; 80% in [5]; 100% in test [6]; 95% in [8]. Further, the residual activity is 92% in test [9]; 88% in [10]; 72% in test [12]; 75% in test [14]; 85% in test [16]; 76% in test [17]. Further, the residual activity in [18] was 100%. Also, the inhibitory constant (Ki) was found to be 8.08 µM at Histamine H2 receptor and 10 µM on Histamine H1 receptor [20]. For the same compound, the IC50 in test [21] is 0.27 µM (not active). Besides, the inhibition in the test listed under Rattus norvegicus is -1.8%; in test [22] it was 2.31%.
